This note sets out measurements from patent US20260078108A1, “SOLID FORMS OF A ROCK INHIBITOR” (REDX PHARMA PLC, priority 2022, published 2026).

One test has as its target T1, CB1 (h) (Homo sapiens, UniProt P21554).
T1 construct: expressed in transfected cells; host or cells: CHO cells
In words: CEREP panel CB1 (h) antagonist effect, cAMP HTRF. In kind it is cell-based. The settings on record: HCl salt tested; CHO cells, CP 55940 (1 nM). The text has this:
The use of in vitro pharmacological screening against a diverse range of targets (receptors, ion channels, enzymes and transporters) is used to identify undesirable off-target activity that may cause adverse drug reactions in humans. Screening panels (e.g. SafetyScreen44™ Panel, Eurofins) comprise a selection of off-targets linked with known issues in humans that could hinder or halt the development of drug candidates or market withdrawal if discovered after a drug is approved. The HCl salts of the S enantiomer and the R enantiomer of compound A were tested against a panel of such targets.
The tests were carried out according to the methods described in the following tables and indicated literature references.
A general note: TR-FRET usually uses a lanthanide donor and a delayed reading to cut background.

Another test addresses ROCK2 (Homo sapiens, UniProt O75116). In words: Activity against kinase ROCK2. Format: biochemical. The conditions noted are these: comparison of enantiomers.

ROCK2, sequence (O75116 whole entry, species assumed): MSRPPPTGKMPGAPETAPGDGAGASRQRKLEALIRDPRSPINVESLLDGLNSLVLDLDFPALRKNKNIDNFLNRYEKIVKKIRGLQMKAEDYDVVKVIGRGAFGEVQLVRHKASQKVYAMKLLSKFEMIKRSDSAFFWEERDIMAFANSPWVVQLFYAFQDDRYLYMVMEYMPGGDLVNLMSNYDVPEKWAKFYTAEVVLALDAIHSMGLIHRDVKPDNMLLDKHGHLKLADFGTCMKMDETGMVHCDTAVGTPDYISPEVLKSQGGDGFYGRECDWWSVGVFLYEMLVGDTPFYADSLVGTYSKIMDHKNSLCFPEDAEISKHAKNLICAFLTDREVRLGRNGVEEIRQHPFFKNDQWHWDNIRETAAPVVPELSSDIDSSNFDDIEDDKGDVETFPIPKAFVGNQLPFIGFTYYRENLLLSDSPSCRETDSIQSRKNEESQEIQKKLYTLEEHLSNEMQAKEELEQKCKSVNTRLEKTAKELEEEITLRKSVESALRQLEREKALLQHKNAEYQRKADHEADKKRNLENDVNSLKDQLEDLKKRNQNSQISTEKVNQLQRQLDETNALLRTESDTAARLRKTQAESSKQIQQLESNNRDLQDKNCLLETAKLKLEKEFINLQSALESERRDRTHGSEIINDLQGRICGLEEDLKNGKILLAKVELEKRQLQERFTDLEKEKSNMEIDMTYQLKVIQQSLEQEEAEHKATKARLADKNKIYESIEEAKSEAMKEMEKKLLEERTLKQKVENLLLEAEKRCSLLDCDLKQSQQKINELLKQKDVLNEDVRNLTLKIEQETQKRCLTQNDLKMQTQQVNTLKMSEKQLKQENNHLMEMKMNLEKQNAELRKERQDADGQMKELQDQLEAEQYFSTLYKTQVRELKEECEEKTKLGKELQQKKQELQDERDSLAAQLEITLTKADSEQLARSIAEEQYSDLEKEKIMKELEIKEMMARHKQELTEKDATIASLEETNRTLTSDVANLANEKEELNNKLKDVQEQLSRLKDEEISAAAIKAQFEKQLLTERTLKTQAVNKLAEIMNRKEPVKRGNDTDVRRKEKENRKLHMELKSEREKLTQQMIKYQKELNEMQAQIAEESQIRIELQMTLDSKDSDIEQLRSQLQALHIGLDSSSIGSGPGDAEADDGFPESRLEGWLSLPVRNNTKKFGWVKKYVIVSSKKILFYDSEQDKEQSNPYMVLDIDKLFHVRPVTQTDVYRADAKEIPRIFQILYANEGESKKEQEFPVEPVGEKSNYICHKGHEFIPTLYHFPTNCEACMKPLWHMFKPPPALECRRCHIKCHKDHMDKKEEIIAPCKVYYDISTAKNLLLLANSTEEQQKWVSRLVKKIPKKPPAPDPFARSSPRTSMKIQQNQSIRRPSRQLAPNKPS
T1 sequence (P21554 whole entry): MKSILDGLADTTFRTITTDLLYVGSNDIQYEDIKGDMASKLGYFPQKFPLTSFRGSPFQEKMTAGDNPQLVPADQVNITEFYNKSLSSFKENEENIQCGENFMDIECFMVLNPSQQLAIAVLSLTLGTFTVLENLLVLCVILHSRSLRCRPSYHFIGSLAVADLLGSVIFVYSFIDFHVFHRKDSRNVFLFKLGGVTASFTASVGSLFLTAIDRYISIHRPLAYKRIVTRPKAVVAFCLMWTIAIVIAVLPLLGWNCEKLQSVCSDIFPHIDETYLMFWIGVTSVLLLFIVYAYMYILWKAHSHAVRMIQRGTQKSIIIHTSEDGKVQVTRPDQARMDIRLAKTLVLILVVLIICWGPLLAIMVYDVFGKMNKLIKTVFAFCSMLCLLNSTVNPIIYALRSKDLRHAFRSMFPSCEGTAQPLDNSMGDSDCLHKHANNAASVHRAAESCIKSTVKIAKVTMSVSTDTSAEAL

For `NCc1ccc(C(=O)Nc2ccncc2F)cc1-c1cccc(C(=O)Nc2ccc(SC[C@H]3CCOC3=O)cc2)c1` [S-enantiomer], the “CB1 (h) (antagonist effect) (IC50)” value at CB1 (h) was “Inactive”. Also, on ROCK2, the “Difference between activities of S- and R-enantiomer against ROCK2” value is recorded as “no statistically meaningful difference”.
The corresponding values for `NCc1ccc(C(=O)Nc2ccncc2F)cc1-c1cccc(C(=O)Nc2ccc(SC[C@@H]3CCOC3=O)cc2)c1` [R-enantiomer] are “Inactive” and “no statistically meaningful difference”.
